Assay results: EP4567031A1, “HPK1 INHIBITOR, PREPARATION METHOD THEREFOR, AND USE THEREOF” (Beijing Earthwise Technology Co., Ltd., priority 2022, dated 2024)
pEC50: −log10 of the molar value.

System: human Pan T cells
Assay: Human Pan T cell IL-2 ELISA
Type: cell-based
Settings: Anti-CD3 and Anti-CD28, 48 hours, supernatant IL-2 ELISA, read-out: IL-2 release, EC50
Description: A compound was dissolved in DMSO to 10 mM, and then diluted three-fold with DMSO to 9 dosages in a 96-well plate. Then, 10 µL of the diluted compound sample was transferred to a 96-well plate with 90 µL of cell culture medium, and the plate was shaken for 5 minutes. Then, 5 µL of the diluted compound sample was transferred to a 96-well plate with 120 µL of cell culture medium, and the plate was shaken for 5 minutes. According to the experimental design diagram, 50 µL of the diluted compound sample was transferred to a cell plate. Final concentrations of the compound in this assay were 10000.00, 5000, 2500, 1250, 625, 312.5, 156.25, 78.125 and 39.063 nM.
The assay was conducted in a 96-well plate. On the first day of the assay, Anti-CD3 was added to the 96-well plate and incubated in a 4 °C refrigerator overnight. On the second day of the assay, human Pan T cells were recovered, centrifuged and counted. The cell density was adjusted to 1*10^6 cells/ml. Then, 100 µL of cells were added to the 96-well plate washed with PBS and added with Anti-CD3; according to the experimental design diagram, 50 µL of diluted Anti-CD28 and 50 µL of the diluted compound were added to each well, centrifuged, and the cell plate was placed and incubated in an incubator for 48 hours; after 48 hours, the plate was centrifuged and the supernatant was collected for IL-2 ELISA.
The signal value of light absorption was converted into a multiple. Multiple = sample value/the average value of control wells. The average value of control wells refers to the value measured in wells with DMSO added. EC50 values were calculated by XLFit (version 5.3.1.3) in Excel. Equation: Y=Bottom + (Top-Bottom) / (1 + (EC50/X) ^ HillSlope). Table 6. Results of cellular activity of the compounds

pEC50 | SMILES
7.96 | CC1(C)c2cc(N3CCOCC3)ccc2Nc2c1cc(-c1cnc3n1CCCC3O)c1c2C(=O)NC1 (single isomer, unassigned) [Example 228]
8.12 | COC1CCn2c(-c3cc4c(c5c3CNC5=O)Nc3ccc(N5CCOCC5)cc3C4(C)C)cnc21 (single isomer, unassigned) [Example 230]
8.12 | CC1(C)c2cc(N3CCOCC3)ccc2Nc2c1cc(-c1cnc3n1CCC(C(F)F)C3)c1c2C(=O)NC1 (single isomer, unassigned) [Example 239]
7.59 | CC1(C)c2cc(N3CCOCC3)ccc2Nc2c1cc(-c1cnc3n1CCC(C(F)F)C3)c1c2C(=O)NC1 (single isomer, unassigned) [Example 240]

The next lines start with the compound.

SMILES | pEC50
Cn1c(-c2cc3c(c4c2CNC4=O)Nc2ccc(N4CCOCC4)cc2C3(C)C)cnc1C1CCCO1 (single isomer, unassigned) [Example 191] | 7.55
COC1CCc2c(-c3cc4c(c5c3CNC5=O)Nc3ccc(N5CCOCC5)cc3C4(C)C)cncc21 (single isomer, unassigned) [Example 202] | 8.06
COC1CCc2c(-c3cc4c(c5c3CNC5=O)Nc3ccc(N5CCOCC5)cc3C4(C)C)cncc21 (single isomer, unassigned) [Example 203] | 7.02
CCC1(C)c2cc(N3CCOCC3)ccc2Nc2c1cc(-c1cnc3c(OC)nccn13)c1c2C(=O)NC1 (single isomer, unassigned) [Example 213] | 7.72
CC1CCCn2c(-c3cc4c(c5c3CNC5=O)Nc3ccc(N5CCOCC5)cc3C4(C)C)cnc21 (single isomer, unassigned) [Example 218] | 7.72
CC1CCCn2c(-c3cc4c(c5c3CNC5=O)Nc3ccc(N5CCOCC5)cc3C4(C)C)cnc21 (single isomer, unassigned) [Example 219] | 8.09

Same assay, conditions: Homo sapiens, T-cell, 48 h, Anti-CD3 and Anti-CD28, supernatant IL-2 ELISA, read-out: IL-2 release, EC50

pEC50 | SMILES
7.30 | CC1(C)c2cc(N3CCOCC3)ccc2Nc2c1cc(-c1cnc3n1CCCC3OC1COC1)c1c2C(=O)NC1 (single isomer, unassigned) [Example 220]
8.19 | CC1(C)c2cc(N3CCOCC3)ccc2Nc2c1cc(-c1cnc3n1CCCC3O)c1c2C(=O)NC1 (single isomer, unassigned) [Example 227]
7.85 | COC1CCn2c(-c3cc4c(c5c3CNC5=O)Nc3ccc(N5CCOCC5)cc3C4(C)C)cnc21 (single isomer, unassigned) [Example 229]
7.98 | COCC1(O)CCN(c2ccc3c(c2)C(C)(C)c2cc(-c4cnc5n4CCCC5OC)c4c(c2N3)C(=O)NC4)CC1 (single isomer, unassigned) [Example 231]
8.00 | CC1(C)c2cc(N3CCOCC3)ccc2Nc2c1cc(-c1cnc3n1CCC(O)C3)c1c2C(=O)NC1 (single isomer, unassigned) [Example 241]
8.07 | CC1(C)c2cc(N3CCOCC3)ccc2Nc2c1cc(-c1cnc3n1CCC(C#N)C3)c1c2C(=O)NC1 (single isomer, unassigned) [Example 242]
7.89 | COC1CCCn2c(-c3cc4c(c5c3CNC5=O)Nc3ccc(N5CCC(O)CC5)cc3C4(C)C)cnc21 (single isomer, unassigned) [Example 243]
8.01 | COc1nccn2c(-c3cc4c(c5c3CNC5=O)Nc3ccc(N5CCOCC5C)cc3C4(C)C)cnc12 (single isomer, unassigned) [Example 244]
6.77 | COC1CCCn2c(-c3nc4c(c5c3CNC5=O)Nc3ccc(N5CCOCC5)cc3C4(C)C)cnc21 (single isomer, unassigned) [Example 279]
7.74 | CCOC1CCCn2c(-c3cc4c(c5c3CCNC5=O)Nc3ccc(N5CCOCC5)cc3C4(C)C)cnc21 (single isomer, unassigned) [Example 281]

The next lines start with the compound.

SMILES | pEC50
Cn1c(-c2cc3c(c4c2CNC4=O)Nc2ccc(N4CCOCC4)cc2C3(C)C)cnc1C1CCCO1 (single isomer, unassigned) [Example 190] | 7.28
CCC1(C)c2cc(N3CCOCC3)ccc2Nc2c1cc(-c1cnc3c(OC)nccn13)c1c2C(=O)NC1 (single isomer, unassigned) [Example 212] | 7.96
Cn1ccc2c(-c3cc4c(c5c3CNC5=O)Nc3ccc(N5CCOCC5)cc3C4(C)C)ccnc21 [Example 42] | 7.85
CC1(C)c2cc(N3CCOC(C(C)(C)O)C3)ccc2Nc2c1cc(-c1ccncc1)c1c2C(=O)NC1 (stereo not drawn) [Example 43] | 7.65
CN1CCN(c2ccc3c(c2)C(C)(C)c2cc(-c4cnn5cccnc45)c4c(c2N3)C(=O)NC4)CC1 [Example 44] | 8.61
CNC1CCN(c2ccc3c(c2)C(C)(C)c2cc(-c4cnn5cccnc45)c4c(c2N3)C(=O)NC4)CC1 [Example 45] | 8.28
CC1(C)c2cc(N3CCC(O)CC3)ccc2Nc2c1cc(-c1cnn3cccnc13)c1c2C(=O)NC1 [Example 47] | 8.34
CC1(C)c2cc(N3CCOCC3)ccc2Nc2c1cc(-c1cnc3n1CCCC3)c1c2C(=O)NC1 [Example 48] | 7.87
COCC1(O)CCN(c2ccc3c(c2)C(C)(C)c2cc(-c4cnn5cccnc45)c4c(c2N3)C(=O)NC4)CC1 [Example 49] | 7.90
CC1(C)c2cc(N3CCOC(C(C)(C)O)C3)ccc2Nc2c1cc(-c1cnc3c(Cl)cccn13)c1c2C(=O)NC1 (stereo not drawn) [Example 99] | 8.26
CC1(C)c2cc(N3CCOC(C(C)(C)O)C3)ccc2Nc2c1cc(-c1cnc3cc(Cl)ccn13)c1c2C(=O)NC1 (stereo not drawn) [Example 100] | 7.88
CC1(C)c2cc(N3CCOC(C(C)(C)O)C3)ccc2Nc2c1cc(-c1cnc3cc(C#N)ccn13)c1c2C(=O)NC1 (stereo not drawn) [Example 101] | 8.25
COC1CCCn2c(-c3cc4c(c5c3CNC5=O)Nc3ccc(N5CCOC(C(C)(C)O)C5)cc3C4(C)C)cnc21 (stereo not drawn) [Example 102] | 7.97
CC1CCCn2c(-c3cc4c(c5c3CNC5=O)Nc3ccc(N5CCOC(C(C)(C)O)C5)cc3C4(C)C)cnc21 (stereo not drawn) [Example 103] | 7.98
Cc1c(-c2cc3c(c4c2CNC4=O)Nc2ccc(N4CCOC(C(C)(C)O)C4)cc2C3(C)C)cnc2c1NCCO2 (stereo not drawn) [Example 104] | 8.19
Cn1c(-c2cc3c(c4c2CNC4=O)Nc2ccc(N4CCOC(C(C)(C)O)C4)cc2C3(C)C)cnc1C1CC1 (stereo not drawn) [Example 105] | 7.94
CC1(C)c2cc(N3CCOC(CO)C3)ccc2Nc2c1cc(-c1cnc3cc(F)ccn13)c1c2C(=O)NC1 (stereo not drawn) [Example 108] | 8.25
CC1(C)c2cc(N3CCOC(C(C)(C)O)C3)ccc2Nc2c1cc(-c1cnn3cc(F)ccc13)c1c2C(=O)NC1 (stereo not drawn) [Example 109] | 8.04
COc1ccn2c(-c3cc4c(c5c3CNC5=O)Nc3ccc(N5CCOC(C(C)(C)O)C5)cc3C4(C)C)cnc2c1 (stereo not drawn) [Example 110] | 7.80
CC1(C)c2cc(N3CCOC(C(C)(C)O)C3)ccc2Nc2c1cc(-c1cncc3c1OCCN3)c1c2C(=O)NC1 (stereo not drawn) [Example 111] | 7.51
CC1(C)c2cc(N3CCOC(C(C)(C)O)C3)ccc2Nc2c1cc(-c1cnc3cnccn13)c1c2C(=O)NC1 (stereo not drawn) [Example 112] | 8.33
CC1(C)c2cc(N3CCOC(C(C)(C)O)C3)ccc2Nc2c1cc(-c1cnc3cc(C(F)F)ccn13)c1c2C(=O)NC1 (stereo not drawn) [Example 113] | 7.86
COc1nccn2c(-c3cc4c(c5c3CNC5=O)Nc3ccc(N5CCOC(C(C)(C)O)C5)cc3C4(C)C)cnc12 (stereo not drawn) [Example 114] | 7.96
CC1(C)c2cc(N3CC(CO)OCC3=O)ccc2Nc2c1cc(-c1cnn3cccnc13)c1c2C(=O)NC1 (stereo not drawn) [Example 115] | 7.04
CC1(C)c2cc(-c3cnn4cccnc34)c3c(c2Nc2cc(F)c(N4CCOCC4)c(F)c21)C(=O)NC3 [Example 116] | 7.19
